row,SMILES,logP
1,CCCn1c(=O)c2[nH]c(C3CCCC3)nc2n(CCCF)c1=O,2.83
2,Oc1ccccc1OC(c1ccccc1)C1CNCCO1 (stereo not given),1.92
3,CNCC(O)CCN1c2ccccc2N(c2ccccc2)S1(=O)=O (stereo not given),2.55
4,Cn1c2c(c3ccccc31)C[C@@]1(O)[C@@H]3Cc4ccc(O)c5c4[C@@]1(CCN3CC1CC1)[C@H]2O5,4.28
5,COc1cc2c(cc1OC)CN(CCc1ccc(NC(=O)c3cccc4c(=O)c5cccc(OC)c5[nH]c34)cc1)CC2,4.82
6,CN1Cc2c(C(=O)OCCF)ncn2-c2ccc(F)cc2C1=O,0.93
7,CCN1CCCC1CNC(=O)c1cc(Br)cc(OC)c1OC (stereo in doubt),2.37
8,CCC(C)NC(=O)c1cc2ccccc2c(-c2ccccc2Cl)n1 (stereo not given),3.25
9,CCN1CCC[C@H]1CNC(=O)c1cc(I)cc(OC)c1OC,2.73
10,COC(=O)C1C(c2ccc(I)cc2)CC2CCC1N2C (stereo not given),2.13

# — the SangsterLogP compilation
